The subject of one assay is HL-60. Briefly: Growth inhibition of human HL60 cells after 72 hrs by trypan blue assay. It is filed as functional. The following applies: HL-60, 72 h.
In the next assay the test system is A-431. The assay can be described thus: Growth inhibition of human A431 cells after 72 hrs by trypan blue assay. The format is functional. The following applies: A-431, 72 h.
The test system of assay [1] is HeLa. Briefly: Growth inhibition of human HeLa cells after 72 hrs by trypan blue assay. It is filed as functional.
The target of assay [2] is DNA topoisomerase 2-alpha (Homo sapiens) (UniProt P11388). The assay can be described thus: Inhibition of human recombinant topoisomerase 2-alpha-mediated pBR322 DNA relaxation at 50 uM after 60 mins by agarose gel electrophoresis.
In another assay the test system is Nucleic Acid. The assay can be described thus: Binding affinity to salmon testes DNA assessed as intercalation at compound to DNA ratio of 0.04 by linear dichroism analysis. The format is nucleic-acid assay. The following applies: Salmonidae.
Assay [3] deals with HeLa. The assay can be described thus: Induction of apoptosis in human HeLa cells assessed as DNA fragmentation at 100 uM after 24 hrs by agarose gel electrophoresis. It is filed as functional, cell-based.
For assay [4], the target named is DNA topoisomerase 2-alpha (Homo sapiens) (UniProt P11388). The assay can be described thus: Inhibition of human recombinant topoisomerase 2-alpha-mediated pBR322 DNA relaxation at 20 uM after 60 mins by agarose gel electrophoresis.
For a further assay, the species on record is Bos taurus. Briefly: Inhibition of calf thymus topoisomerase-1-mediated pBR322 DNA relaxation after 60 mins by agarose gel electrophoresis.
The target in assay [5] is DNA topoisomerase 2-alpha (Homo sapiens) (UniProt P11388). Briefly: Inhibition of human recombinant topoisomerase 2-alpha-mediated pBR322 DNA cleavage at 100 uM after 60 mins by agarose gel electrophoresis.

The source made the active and inactive calls. The calls are words filed in the database; no cut-off is given here.

DNA topoisomerase 2-alpha (Homo sapiens), sequence (P11388 whole entry): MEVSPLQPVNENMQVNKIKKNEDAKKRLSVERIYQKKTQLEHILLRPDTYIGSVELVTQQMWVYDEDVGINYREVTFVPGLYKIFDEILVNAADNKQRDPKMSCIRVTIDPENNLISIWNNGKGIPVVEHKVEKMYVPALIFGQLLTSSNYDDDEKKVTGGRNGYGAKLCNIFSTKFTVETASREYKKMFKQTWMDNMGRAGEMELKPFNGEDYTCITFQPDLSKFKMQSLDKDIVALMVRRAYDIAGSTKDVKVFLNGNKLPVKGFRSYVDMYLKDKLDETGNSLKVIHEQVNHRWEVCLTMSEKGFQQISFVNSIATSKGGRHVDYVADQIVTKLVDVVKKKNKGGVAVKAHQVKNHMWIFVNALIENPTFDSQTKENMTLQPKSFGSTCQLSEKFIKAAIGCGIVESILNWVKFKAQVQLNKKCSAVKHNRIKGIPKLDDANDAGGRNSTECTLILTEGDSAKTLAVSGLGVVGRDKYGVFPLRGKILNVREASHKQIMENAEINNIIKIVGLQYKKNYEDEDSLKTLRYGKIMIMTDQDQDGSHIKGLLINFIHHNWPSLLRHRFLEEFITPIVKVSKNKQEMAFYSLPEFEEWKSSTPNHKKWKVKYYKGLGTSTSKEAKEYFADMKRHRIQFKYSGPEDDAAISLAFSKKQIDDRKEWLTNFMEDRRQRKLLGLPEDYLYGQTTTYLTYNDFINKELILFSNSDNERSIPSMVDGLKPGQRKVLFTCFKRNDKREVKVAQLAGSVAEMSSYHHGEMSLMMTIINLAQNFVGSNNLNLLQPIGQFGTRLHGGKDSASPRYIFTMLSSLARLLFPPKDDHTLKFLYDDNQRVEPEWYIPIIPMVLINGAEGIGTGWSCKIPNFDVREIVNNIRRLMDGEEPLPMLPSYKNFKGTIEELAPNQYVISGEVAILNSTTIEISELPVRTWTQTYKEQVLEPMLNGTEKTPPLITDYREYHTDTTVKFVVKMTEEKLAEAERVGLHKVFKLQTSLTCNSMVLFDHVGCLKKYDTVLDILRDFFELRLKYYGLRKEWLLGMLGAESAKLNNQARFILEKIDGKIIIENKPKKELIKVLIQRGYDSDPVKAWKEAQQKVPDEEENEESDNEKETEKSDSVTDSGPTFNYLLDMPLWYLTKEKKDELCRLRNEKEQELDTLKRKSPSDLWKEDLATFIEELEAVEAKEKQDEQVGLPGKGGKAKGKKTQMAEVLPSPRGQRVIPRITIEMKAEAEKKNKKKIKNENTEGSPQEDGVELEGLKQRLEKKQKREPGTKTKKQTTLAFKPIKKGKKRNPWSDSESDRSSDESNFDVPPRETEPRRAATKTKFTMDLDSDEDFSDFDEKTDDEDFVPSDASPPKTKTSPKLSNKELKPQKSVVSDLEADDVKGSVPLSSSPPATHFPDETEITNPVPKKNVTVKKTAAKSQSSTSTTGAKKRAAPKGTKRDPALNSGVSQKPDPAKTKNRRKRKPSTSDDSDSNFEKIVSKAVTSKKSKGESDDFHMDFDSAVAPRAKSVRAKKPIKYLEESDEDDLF

For orientation: GI50 means the concentration at which growth is held to half of that of the control. Low values mean greater sensitivity of the cells, high ones lower sensitivity of the cells. As to `Cc1c2ccncc2c(C)c2c1[nH]c1ccccc12` [ELLIPTECINE], the concentration for 50% growth inhibition (GI50) with HL-60 came out at 2 µM; in the assay on A-431, 3.2 µM; in the assay with HeLa [1], 0.3 µM.
For `Cc1cc(=O)n2c(C)cc3c(OCCCNCCN(C)C)ccc1c32`, the inhibition entry in assay [2] is “inactive”. Besides, in the assay with Nucleic Acid, the outcome was Active. Further, the GI50 in the assay with HL-60 is more than 50 µM; in the assay with A-431, 14.5 µM.
For `Cc1cc(=O)n2c(C)cc3c(OCCCCNCCN(C)C)ccc1c32`, the inhibition entry in assay [2] and in assay [5] was “Active” each time. In addition, the result with Nucleic Acid and in the assay on HeLa [3] was Active. The inhibition entry in [4] is “inactive”. Besides, the concentration for 50% growth inhibition (GI50) with HL-60 amounted to 8.3 µM; in the assay on A-431, 13.6 µM; with HeLa [1] it was 19.7 µM. In addition, the inhibition entry in the assay listed under Bos taurus is “Dose-dependent effect”.
`Cc1cc(=O)n2c(C)cc3c(OCCNCCN(C)C)ccc1c32`: the inhibition result in assay [2] is “Active”. Moreover, in the assay on Nucleic Acid, the result was Active. The GI50 in the assay with HL-60 is 25.7 µM; in the assay with A-431, 7.5 µM; with HeLa [1] it was more than 50 µM.
Consider `Cc1cc(=O)n2c(C)cc3c(OCCCCN(C)C)ccc1c32`, for which the inhibition entry in [2] and in assay [4] was “inactive” each time. Moreover, the result in the assay with Nucleic Acid was Active. For the same molecule, the values for the GI50 with HL-60, in the assay on A-431 and with HeLa [1] were more than 50 µM, 41.3 µM and more than 50 µM, respectively.
